# Experimental data from article PMC5320518, “Novel Liver-targeted conjugates of Glycogen Phosphorylase Inhibitor PSN-357 for the Treatment of Diabetes: Design, Synthesis, Pharmacokinetic and Pharmacological Evaluations” (Scientific Reports, 2017).
# Like-named read-outs stand apart in the source and are kept apart here.
# Tests used:
# [1] = Biodistribution and pharmacokinetics in plasma and liver after intravenous administration in mice; format: in vivo; details: 5 mg/kg intravenous; for AUC(0-t) / Cmax: iv
# Protocol: Based on the results of the potency and in vitro stability studies, conjugate 6 was selected for in vivo pharmacokinetic analysis following a single intravenous injection of 5 mg/kg in male C57 BL/6. Doses of PSN-357 intravenous were used as standard regimens for comparison.
# Male C57 BL/6 mice (18–20 g, 5–6 weeks old) were provided by the Laboratory Animal Center of Academy of Military Medical Science of People’s Liberation Army, and were reared in standard rodent cages in animal house of Chengde Medical University, under the condition of a constant temperature of 24 °C (±2 °C) and a 12 h light/dark cycle. PSN-357 and conjugate 6 were injected through the caudal vein. For each sampling time point, three mice were treated with a single dose of either PSN-357 or conjugate 6 at 5 mg/kg in 10% DMSO/saline solutions. Blood and liver samples were taken at 0.0833, 0.25, 0.5, 1, 2, 4, 6 and 24 h following intravenous administration, and stored at −80 °C until analysis. Aliquots of all biological matrixes were deproteinized with a mixture of methanol/acetonitrile (1:1). The suspension was vortexed, mixed, and centrifuged at 13000 rpm for 10 min. The organic phase was injected into the LC-MS/MS system. PK calculations and statistical comparisons on PK data were performed according to a non-compartmental kinetic model with validated software (Kinetica™ version 5.1, Thermo Electron Corporation, USA).
# [2] = test system: leptin-deficient ob/ob mice; test: Glucose lowering in vivo in diabetic ob/ob mice; details: 50 mg/kg p.o.; for hypoglycemic effect (in words): 0-24 h
# Protocol: In vivo efficacy of compound PSN-357 and conjugate 6 were studied on leptin-deficient ob/ob mice. Metformin was chosen as a positive control. […] Especially, there was still significant decrease in BG levels by conjugate 6 up to 6 h after administration. The effect might be due to the fact that 6 acts in a sustained release and longer acting manners. It is noteworthy that the findings are highly consistent with the results from in vivo pharmacokinetic studies.
# Five- to six-week old obese, diabetic ob/ob mice (male C57BL/6 J) and their lean, nondiabetic male C57BL/6 J littermates were provided by the Model Animal Research Center of Nanjing University, and housed under standard animal care practices with ad libitum access to food and water throughout the procedures. After 1 week acclimation, blood was collected from the retroorbital sinus for plasma glucose determination, and mice were randomized to groups with similar mean ± SD. Mice were then dosed p.o. daily for 4 days with vehicle consisting of DMSO/PEG400/H-β-CD (1:3:6, v/v/v). On day 5, mice were treated p.o. with PSN-357 (50 mg/kg) or conjugate 6 (50 mg/kg) or vehicle, then bled at 0, 1, 2, 3, 6 and 24 h post-dose for plasma glucose determination. Statistical analysis of the hypoglycemic effect was determined by unpaired t test with the ob/ob mice vehicle treated group.
# isolated rat hepatocytes = test: Glycogenolysis inhibition in isolated rat hepatocytes; format: cell-based; details: mean ± S.D. of three, NI means no inhibition
# From the text: To evaluate the effects of all compounds in cells, the glycogenolysis assays were established in both rat and human liver cells based on the published method. […] The inhibitory activities of the derivatives of PSN-357 (e.g. 25–28) were also explored. It is not surprising that the derivatives still retained micromolar inhibitory activities. Introduction of steric bulks to the hydroxyl group (e.g. 33, 40, 42, 48) led to a complete loss of activity. Data analysis indicated no clear SAR for the substitutents in the cell-based assays.
# The inhibition of hepatic glycogenolysis was monitored by the measurement of liver glycogen, which was done quantitatively by the anthrone reagent (Sigma) colorimetric method based on the published method. Isolated rat hepatocytes or HepG2 cells (Sigma) were treated with the test compound or DMSO solvent (final concentration, 0.10%), followed by 60-min incubation with 0.3 nM glucagon (GGN). Assays were terminated by centrifugation, and cells were digested with 30% KOH followed by glycogen determination. The IC50 values were estimated by fitting the inhibition data to a dose-dependent curve using a logistic derivative equation.
# [3] = Stability in simulated intestinal fluid (SIF); format: in vitro ADME; details: SIF pH 6.79 with pancreatin, 2 μM, 37 °C, 24 h incubation
# Protocol: (§1) All the conjugates were tested for their chemical and metabolic stability in multiple assays, including simulated gastric fluid (SGF), simulated interstinal fluid (SIF), mouse plasma, and mouse liver microsome (MLM).
# (§2) For the stability in SGF (Fig. 8) and SIF (Fig. 9), the conjugates could be divided into three groups: (1) stable conjugates 2, 6 and 9. […] The two conjugates were degraded within 6 h and 1 h in SGF and SIF, respectively, with alomost no conjugates at the end of the 24 h incubation in both SGF and SIF; (3) complicated conjugates 3, 4, 5 and 8.
# (§3) The simulated gastrointestinal fluids were prepared according to USP specifications. For SGF, NaCl (0.12 g) and pepsin (0.18 g, from porcine stomach mucosa) was dissolved in HCl (0.42 mL) and sufficient H2O was added to make 60 mL. The pH of the test solution was determined as 1.21 by pH meter. For the SIF, KH2PO4 (0.408 g) and pancreatin (0.6 g, from porcine pancreas) was dissolved in H2O (60 mL). The pH of the test solution was determined as 6.79 by pH meter. Each test compound was dissolved in DMSO and diluted to a final concentration of 2 μM in SIF and SGF. The final concentrations of DMSO and CH3CN in the incubation mixture were 0.2% and 0.45%. Aliquots of these solutions were pipetted into glass tubes, and placed in a 37 °C shaking water bath. Test samples at corresponding time point (1, 2, 6, 24 h) were removed at the end of incubation time and immediately mixed with 800 μL of cold acetonitrile containing 500 ng/mL tolbutamide (internal standard). Samples were subjected to centrifuge at 4000 rpm, 4 °C for 20 min. Aliquots 60 μL of supernatant was combined with 120 μL water for LC-MS/MS analysis.
# [4] = Stability in simulated gastric fluid (SGF); format: in vitro ADME; details: SGF pH 1.21 with pepsin, 2 μM, 37 °C, 24 h incubation
# Protocol: as §1, §2, §3
# [5] = male, C57 BL/6, mouse, liver tissue, read-out: MRT0-t, liver
# [6] = male, C57 BL/6, mouse, liver, 5 mg/kg, liver tissue, read-out: AUC0-t, liver
# [7] = male, C57 BL/6, mouse, plasma, read-out: MRT0-t, plasma
# [8] = male, C57 BL/6, mouse, plasma, 5 mg/kg
# [9] = male, C57 BL/6, mouse, plasma, 5 mg/kg, plasma, read-out: AUC0-t, plasma
structure (smiles),measurement,setting,value
O=C(N[C@@H](Cc1ccc(F)cc1)C(=O)N1CCC(O)CC1)c1cc2cc(Cl)ncc2[nH]1 [PSN-357],"Cmax, liver",[1]; liver tissue,6677.85 ng/mL
same,"AUC0-t, liver","[1]; liver tissue, 5 mg/kg",9711.94 ng·h/mL
same,Kp,"[1]; male, C57 BL/6, mouse, liver and plasma, read-out: AUCliver/AUCplasma ratio",10.1
same,MRT last,[1]; [5],4.52 h
same,AUC(0-t),[1]; [6],9710 ng·h/mL
same,MRT last,[1]; [7],3.18 h
same,Cmax,[1]; [8],628 ng/mL
same,AUC(0-t),[1]; [9],965 ng·h/mL
same,"AUC0-t, plasma","[1]; plasma, 5 mg/kg",965.16 ng·h/mL
same,"Cmax, plasma","[1]; plasma, 5 mg/kg",628.35 ng/mL
same,time of secondary peak in plasma,"[1]; plasma, perhaps due to enterohepatic circulation",60 min
same,hypoglycemic effect (in words),[2]; n = 10,significantly reduc the blood glucose
same,blood glucose (BG) nadir,"[2]; at 1 h, p < 0.005 vs control ob/ob mice",6.36 ± 1.46 mM
same,IC50,"isolated rat hepatocytes; Hepatocyte, 1 h, isolated rat hepatocytes, 60-min incubation with 0.3 nM glucagon, read-out: IC50 (glycogenolysis inhibition, rat hepatocytes)",10.7 ± 2.73 µM
C[C@H](CCC(=O)N[C@@H](CC(=O)O)C(=O)OC1CCN(C(=O)[C@H](Cc2ccc(F)cc2)NC(=O)c2cc3cc(Cl)ncc3[nH]2)CC1)[C@H]1CC[C@H]2[C@@H]3[C@H](O)C[C@@H]4C[C@H](O)CC[C@]4(C)[C@H]3C[C@H](O)[C@]12C [Conjugate 6],"Cmax, liver",[1]; liver tissue,3094.55 ng/mL
same,MRT last,[1]; [5],4.42 h
same,AUC(0-t),[1]; [6],3980 ng·h/mL
same,MRT last,[1]; [7],7.52 h
same,concentration at 240 min,"[1]; male, C57 BL/6, mouse, plasma, 240 min, read-out: plasma concentration at 240 min after dosing",97 ng/mL
same,Cmax,[1]; [8],726 ng/mL
same,AUC(0-t),[1]; [9],1520 ng·h/mL
same,"Cmax, plasma","[1]; plasma, 5 mg/kg",726.2 ng/mL
same,hypoglycemic effect (in words),"[2]; n = 10, 50 mg/kg",small but significant hypoglycemic effects
same,BG level at largest drop,"[2]; at 3 h, p < 0.005",around 7.79 mmol/L
same,IC50,"isolated rat hepatocytes; Rattus norvegicus, Hepatocyte, 1 h, read-out: IC50 (glycogenolysis inhibition, rat hepatocytes), isolated rat hepatocytes, 60-min incubation with 0.3 nM glucagon",13.4 µM
same,IC50,"isolated rat hepatocytes; read-out: IC50 (glycogenolysis inhibition, rat hepatocytes), isolated rat hepatocytes, 60-min incubation with 0.3 nM glucagon",13.4 ± 2.55 µM
same,stability in SIF (in words),[3],stable up to 24 h
same,stability in SGF (in words),[4],stable
